Measurements as given in ChEMBL document CHEMBL4665836, “Overcoming β-Lactam resistance in Pseudomonas aeruginosa using non-canonical tobramycin-based antibiotic adjuvants” (2020).

Tests used:
Assay type in all cases: functional
Pseudomonas aeruginosa [1] = test: Potentiation of aztreonam-induced antibacterial activity against carbapenem-resistant Pseudomonas aeruginosa 109084 clinical isolate assessed as aztreonam MIC at 8 uM by checkerboard assay (reference value: 64 ug/ml)
Pseudomonas aeruginosa [2] = test: Potentiation of ceftazidime-induced antibacterial activity against carbapenem-resistant Pseudomonas aeruginosa 264-104354 clinical isolate assessed as ceftazidime MIC at 8 uM by checkerboard assay (reference value: 128 ug/ml)
Pseudomonas aeruginosa [3] = test: Potentiation of imipenem-induced antibacterial activity against carbapenem-resistant Pseudomonas aeruginosa 88949 clinical isolate assessed as fold reduction in imipenem MIC at 8 uM in presence of beta-lactamase inhibitor, rele-bactam
Pseudomonas aeruginosa [4] = test: Potentiation of ceftazidime-induced antibacterial activity against carbapenem-resistant Pseudomonas aeruginosa 109084 clinical isolate assessed as ceftazidime MIC at 8 uM by checkerboard assay (reference value: 64 ug/ml)
Pseudomonas aeruginosa [5] = test: Potentiation of imipenem-induced antibacterial activity against wild-type Pseudomonas aeruginosa PAO1 assessed as imipenem MIC at 8 uM by checkerboard assay (reference value: 4 ug/ml)
Pseudomonas aeruginosa [6] = test: Potentiation of aztreonam-induced antibacterial activity against carbapenem-resistant Pseudomonas aeruginosa 86052 clinical isolate assessed as fold reduction in aztreonam MIC at 8 uM in presence of beta-lactamase inhibitor, avi-bactam
Pseudomonas aeruginosa [7] = test: Potentiation of aztreonam-induced antibacterial activity against carbapenem-resistant Pseudomonas aeruginosa 260-97103 clinical isolate assessed as aztreonam MIC at 8 uM by checkerboard assay (reference value: 64 ug/ml)
Pseudomonas aeruginosa [8] = test: Potentiation of ceftazidime-induced antibacterial activity against carbapenem-resistant Pseudomonas aeruginosa PAO750 harboring and mexAB-oprM/mexCD-oprJ/mexEF-oprN/mexJK/mexXY/opmH efflux deficient mutant assessed as ceftazidime MIC at 8 uM by checkerboard assay (reference value: 0.5 ug/ml)
Pseudomonas aeruginosa [9] = test: Potentiation of imipenem-induced antibacterial activity against carbapenem and colistin-resistant Pseudomonas aeruginosa 91433 clinical isolate assessed as imipenem MIC at 8 uM by checkerboard assay (reference value: 8 ug/ml)
Pseudomonas aeruginosa [10] = test: Potentiation of aztreonam-induced antibacterial activity against carbapenem-resistant Pseudomonas aeruginosa 108590 clinical isolate assessed as fold reduction in aztreonam MIC at 8 uM in presence of beta-lactamase inhibitor, avi-bactam
Pseudomonas aeruginosa [11] = test: Potentiation of aztreonam-induced antibacterial activity against carbapenem-resistant Pseudomonas aeruginosa 88949 clinical isolate assessed as aztreonam MIC at 8 uM by checkerboard assay (reference value: 32 ug/ml)
Pseudomonas aeruginosa [12] = test: Potentiation of aztreonam-induced antibacterial activity against carbapenem-resistant Pseudomonas aeruginosa 259-96918 clinical isolate expressing metallo-beta-lactamase assessed as aztreonam MIC at 8 uM by checkerboard assay (reference value: 32 ug/ml)
Pseudomonas aeruginosa [13] = test: Potentiation of imipenem-induced antibacterial activity against carbapenem-resistant Pseudomonas aeruginosa 86052 clinical isolate assessed as imipenem MIC at 8 uM by checkerboard assay (reference value: 32 ug/ml)
Pseudomonas aeruginosa [14] = test: Potentiation of imipenem-induced antibacterial activity against carbapenem-resistant Pseudomonas aeruginosa 107092 clinical isolate assessed as imipenem MIC at 8 uM by checkerboard assay (reference value: 64 ug/ml)
Pseudomonas aeruginosa [15] = test: Potentiation of aztreonam-induced antibacterial activity against carbapenem-resistant Pseudomonas aeruginosa 109084 clinical isolate assessed as fold reduction in aztreonam MIC at 8 uM in presence of beta-lactamase inhibitor, avi-bactam
Pseudomonas aeruginosa [16] = test: Potentiation of imipenem-induced antibacterial activity against carbapenem-resistant Pseudomonas aeruginosa 101885 clinical isolate assessed as imipenem MIC at 8 uM by checkerboard assay (reference value: 4 ug/ml)
Pseudomonas aeruginosa [17] = test: Potentiation of imipenem-induced antibacterial activity against carbapenem-resistant Pseudomonas aeruginosa 109084 clinical isolate assessed as fold reduction in imipenem MIC at 8 uM in presence of beta-lactamase inhibitor, rele-bactam
Pseudomonas aeruginosa [18] = test: Potentiation of aztreonam-induced antibacterial activity against wild type Pseudomonas aeruginosa PAO1 assessed as aztreonam MIC at 8 uM by checkerboard assay (reference value: 4 ug/ml)
Pseudomonas aeruginosa [19] = test: Potentiation of ceftazidime-induced antibacterial activity against carbapenem-resistant Pseudomonas aeruginosa 108590 clinical isolate assessed as fold reduction in ceftazidime MIC at 8 uM in presence of beta-lactamase inhibitor, avi-bactam
Pseudomonas aeruginosa [20] = test: Potentiation of imipenem-induced antibacterial activity against carbapenem-resistant Pseudomonas aeruginosa 260-97103 clinical isolate assessed as imipenem MIC at 8 uM by checkerboard assay (reference value: 16 ug/ml)
Pseudomonas aeruginosa [21] = test: Potentiation of imipenem-induced antibacterial activity against carbapenem-resistant Pseudomonas aeruginosa PAO200 harboring mexAB-oprM efflux deficient mutant assessed as imipenem MIC at 8 uM by checkerboard assay (reference value: 4 ug/ml)
Pseudomonas aeruginosa [22] = test: Potentiation of ceftazidime-induced antibacterial activity against carbapenem-resistant Pseudomonas aeruginosa 260-97103 clinical isolate assessed as ceftazidime MIC at 8 uM by checkerboard assay (reference value: 32 ug/ml)
Pseudomonas aeruginosa [23] = test: Potentiation of aztreonam-induced antibacterial activity against carbapenem-resistant Pseudomonas aeruginosa 262-101856 clinical isolate assessed as aztreonam MIC at 8 uM by checkerboard assay (reference value: 32 ug/ml)
Pseudomonas aeruginosa [24] = test: Potentiation of imipenem-induced antibacterial activity against carbapenem-resistant Pseudomonas aeruginosa 264-104354 clinical isolate assessed as imipenem MIC at 8 uM by checkerboard assay (reference value: 16 ug/ml)
Pseudomonas aeruginosa [25] = test: Potentiation of ceftazidime-induced antibacterial activity against carbapenem-resistant Pseudomonas aeruginosa 101885 clinical isolate assessed as ceftazidime MIC at 8 uM by checkerboard assay (reference value: 8 ug/ml)
Pseudomonas aeruginosa [26] = test: Potentiation of aztreonam-induced antibacterial activity against carbapenem and colistin-resistant Pseudomonas aeruginosa 101243 clinical isolate assessed as aztreonam MIC at 8 uM by checkerboard assay (reference value: 32 ug/ml)
Pseudomonas aeruginosa [27] = test: Potentiation of imipenem-induced antibacterial activity against carbapenem-resistant Pseudomonas aeruginosa 86052 clinical isolate assessed as fold reduction in imipenem MIC at 8 uM in presence of beta-lactamase inhibitor, rele-bactam
Pseudomonas aeruginosa [28] = test: Antibacterial activity against Pseudomonas aeruginosa PAO200 harboring mexAB-oprM efflux deficient mutant
Pseudomonas aeruginosa [29] = test: Potentiation of aztreonam-induced antibacterial activity against carbapenem and colistin-resistant Pseudomonas aeruginosa 91433 clinical isolate assessed as aztreonam MIC at 8 uM by checkerboard assay (reference value: 16 ug/ml)
Pseudomonas aeruginosa [30] = test: Potentiation of ceftazidime-induced antibacterial activity against carbapenem-resistant Pseudomonas aeruginosa 100036 clinical isolate assessed as ceftazidime MIC at 8 uM by checkerboard assay (reference value: 8 ug/ml)
Pseudomonas aeruginosa [31] = test: Potentiation of imipenem-induced antibacterial activity against carbapenem-resistant Pseudomonas aeruginosa 262-101856 clinical isolate assessed as imipenem MIC at 8 uM by checkerboard assay (reference value: 32 ug/ml)
Pseudomonas aeruginosa [32] = test: Potentiation of ceftazidime-induced antibacterial activity against carbapenem-resistant Pseudomonas aeruginosa 107092 clinical isolate assessed as ceftazidime MIC at 8 uM by checkerboard assay (reference value: 128 ug/ml)

Structure (SMILES)	MIC (Pseudomonas aeruginosa [1]) [µg/mL]	MIC (Pseudomonas aeruginosa [2]) [µg/mL]	fold change (FC) (Pseudomonas aeruginosa [3])	MIC (Pseudomonas aeruginosa [4]) [µg/mL]	MIC (Pseudomonas aeruginosa [5]) [µg/mL]	fold change (FC) (Pseudomonas aeruginosa [6])	MIC (Pseudomonas aeruginosa [9]) [µg/mL]	fold change (FC) (Pseudomonas aeruginosa [10])	MIC (Pseudomonas aeruginosa [13]) [µg/mL]	MIC (Pseudomonas aeruginosa [14]) [µg/mL]	fold change (FC) (Pseudomonas aeruginosa [15])	MIC (Pseudomonas aeruginosa [16]) [µg/mL]	fold change (FC) (Pseudomonas aeruginosa [17])	fold change (FC) (Pseudomonas aeruginosa [19])	MIC (Pseudomonas aeruginosa [20]) [µg/mL]	MIC (Pseudomonas aeruginosa [21]) [µg/mL]	MIC (Pseudomonas aeruginosa [24]) [µg/mL]	fold change (FC) (Pseudomonas aeruginosa [27])	MIC (Pseudomonas aeruginosa [28]) [µg/mL]	MIC (Pseudomonas aeruginosa [31]) [µg/mL]	also measured
NC[C@H]1O[C@H](O[C@H]2[C@H](OCCCCc3cn(CCCCO[C@@H]4[C@@H](O)[C@H](N)C[C@H](N)[C@H]4O[C@H]4O[C@H](CN)[C@@H](O)C[C@H]4N)nn3)[C@@H](O)[C@H](N)C[C@@H]2N)[C@H](N)C[C@@H]1O.O=C(O)C(F)(F)F.O=C(O)C(F)(F)F.O=C(O)C(F)(F)F.O=C(O)C(F)(F)F.O=C(O)C(F)(F)F.O=C(O)C(F)(F)F.O=C(O)C(F)(F)F.O=C(O)C(F)(F)F	16	32	16	32	2	16	8	16	16	32	16	4	16	16	16	1	8	16	> 128	4	MIC (Pseudomonas aeruginosa [7]): 16 µg/mL; MIC (Pseudomonas aeruginosa [8]): 0.13 µg/mL; MIC (Pseudomonas aeruginosa [11]): 16 µg/mL; MIC (Pseudomonas aeruginosa [12]): 8 µg/mL; MIC (Pseudomonas aeruginosa [18]): 1 µg/mL; MIC (Pseudomonas aeruginosa [22]): 16 µg/mL; MIC (Pseudomonas aeruginosa [23]): 16 µg/mL; MIC (Pseudomonas aeruginosa [25]): 1 µg/mL; MIC (Pseudomonas aeruginosa [26]): 8 µg/mL; MIC (Pseudomonas aeruginosa [29]): 2 µg/mL; MIC (Pseudomonas aeruginosa [30]): 4 µg/mL; MIC (Pseudomonas aeruginosa [32]): 128 µg/mL
Cl.Cl.Cl.Cl.Cl.NC[C@H]1O[C@H](O[C@H]2[C@H](OCCCCCCCCCCCCN3CCN(c4cc5c(cc4F)c(=O)c(C(=O)O)cn5C4CC4)CC3)[C@@H](O)[C@H](N)C[C@@H]2N)[C@H](N)C[C@@H]1O	32	64	16	32	1	16	8	16	4	16	16	2	16	16	2	1	8	16	4	8	MIC (Pseudomonas aeruginosa [7]): 0.25 µg/mL; MIC (Pseudomonas aeruginosa [8]): 0.01 µg/mL; MIC (Pseudomonas aeruginosa [11]): 8 µg/mL; MIC (Pseudomonas aeruginosa [12]): 8 µg/mL; MIC (Pseudomonas aeruginosa [18]): 0.5 µg/mL; MIC (Pseudomonas aeruginosa [22]): 0.25 µg/mL; MIC (Pseudomonas aeruginosa [23]): 16 µg/mL; MIC (Pseudomonas aeruginosa [25]): 4 µg/mL; MIC (Pseudomonas aeruginosa [26]): 0.25 µg/mL; MIC (Pseudomonas aeruginosa [29]): 8 µg/mL; MIC (Pseudomonas aeruginosa [30]): 4 µg/mL; MIC (Pseudomonas aeruginosa [32]): 64 µg/mL
N=C(N)NC[C@H]1O[C@H](O[C@H]2[C@H](OCCCCCCCCCCCCN3CCN(c4cc5c(cc4F)c(=O)c(C(=O)O)cn5C4CC4)CC3)[C@@H](O[C@H]3O[C@H](CO)[C@@H](O)[C@H](NC(=N)N)[C@H]3O)[C@H](NC(=N)N)C[C@@H]2NC(=N)N)[C@H](NC(=N)N)C[C@@H]1O.O=C(O)C(F)(F)F.O=C(O)C(F)(F)F.O=C(O)C(F)(F)F.O=C(O)C(F)(F)F.O=C(O)C(F)(F)F.O=C(O)C(F)(F)F	32	128	16	32	1	16	8	16	16	32	16	2	16	16	8	2	16	16	16	16	MIC (Pseudomonas aeruginosa [7]): 8 µg/mL; MIC (Pseudomonas aeruginosa [8]): 0.25 µg/mL; MIC (Pseudomonas aeruginosa [11]): 32 µg/mL; MIC (Pseudomonas aeruginosa [12]): 32 µg/mL; MIC (Pseudomonas aeruginosa [18]): 0.5 µg/mL; MIC (Pseudomonas aeruginosa [22]): 16 µg/mL; MIC (Pseudomonas aeruginosa [23]): 32 µg/mL; MIC (Pseudomonas aeruginosa [25]): 2 µg/mL; MIC (Pseudomonas aeruginosa [26]): 4 µg/mL; MIC (Pseudomonas aeruginosa [29]): 16 µg/mL; MIC (Pseudomonas aeruginosa [30]): 6 µg/mL; MIC (Pseudomonas aeruginosa [32]): 32 µg/mL
NC[C@H]1O[C@H](O[C@H]2[C@H](OCCCCCCCCN3CCCNCCNCCCNCC3)[C@@H](O)[C@H](N)C[C@@H]2N)[C@H](N)C[C@@H]1O.O=C(O)C(F)(F)F.O=C(O)C(F)(F)F.O=C(O)C(F)(F)F.O=C(O)C(F)(F)F.O=C(O)C(F)(F)F.O=C(O)C(F)(F)F.O=C(O)C(F)(F)F.O=C(O)C(F)(F)F	32	32	16	32	4	16	4	16	16	32	16	2	16	16	8	2	16	16	> 128	16	MIC (Pseudomonas aeruginosa [7]): 8 µg/mL; MIC (Pseudomonas aeruginosa [8]): 0.13 µg/mL; MIC (Pseudomonas aeruginosa [11]): 32 µg/mL; MIC (Pseudomonas aeruginosa [12]): 8 µg/mL; MIC (Pseudomonas aeruginosa [18]): 0.5 µg/mL; MIC (Pseudomonas aeruginosa [22]): 16 µg/mL; MIC (Pseudomonas aeruginosa [23]): 8 µg/mL; MIC (Pseudomonas aeruginosa [25]): 2 µg/mL; MIC (Pseudomonas aeruginosa [26]): 2 µg/mL; MIC (Pseudomonas aeruginosa [29]): 8 µg/mL; MIC (Pseudomonas aeruginosa [30]): 4 µg/mL; MIC (Pseudomonas aeruginosa [32]): 32 µg/mL
NC[C@H]1O[C@H](O[C@H]2[C@H](OCCCCCCCCN3CCCNCCNCCCNCC3)[C@@H](O[C@H]3O[C@H](CO)[C@@H](O)[C@H](N)[C@H]3O)[C@H](N)C[C@@H]2N)[C@H](N)C[C@@H]1O.O=C(O)C(F)(F)F.O=C(O)C(F)(F)F.O=C(O)C(F)(F)F.O=C(O)C(F)(F)F.O=C(O)C(F)(F)F.O=C(O)C(F)(F)F.O=C(O)C(F)(F)F.O=C(O)C(F)(F)F.O=C(O)C(F)(F)F	–	–	16	–	2	16	8	16	16	16	16	2	16	16	8	2	8	16	> 128	16	–
